{"source": "patent US6989270B1", "about": "“Using polyamide nucleic acid oligomers to engender a biological response” (Mayo Foundation for Medical Education and Research, priority 1997, dated 2006)", "key": {"[1]": {"tested_on": "neurotensin receptor-1 (NTR1)", "test": "Hot plate test of NT-mediated anti-nociception in PNA-treated rats", "assay_type": "in vivo, rat", "procedure": "Under an Institutional Animal Care and Use Committee approved protocol and under sterile conditions male Sprague-Dawley rats (180-200 g) were stereotaxically implanted with stainless steel guide cannulae (26 gauge) into the PAG under sodium pentobarbital anesthesia (50 mg/kg, i.p.) as described in detail elsewhere (Jensen T. S. and Yaksh T. L., Brain Res. 372:301-312 (1986) and Al-Rodhan N.R.F., Brain Res. 557:227-235 (1991)). The coordinates used for PAG cannulations are -5.6 mm posterior from bregma, 1.0 mm lateral from bregma, and 5.5 mm down from the dura. The guide cannula was pre-measured to be 5.5 mm (Plastics One, Roanoke, Va.) and the internal cannula was ordered to fit below the pedestal with a 2.0 mm projection. The guide cannula was then fixed to the skull using a stainless steel screw (⅛ inch) and cranioplastic cement. A stainless steel stilette was then placed in each guide to keep it patent and free of debris. Immediately after surgery, the animals were allowed to recover before returning them to an individual housing cage. All injections began 5-7 days after surgery.\nNTR1-PNA oligomers were injected, using a Hamilton digital syringe, into the PAG through the internal cannula, which extended 2 mm below the guide tip. The internal cannula was connected with a length of polyethylene tubing (PE-20) filled with saline solution. A small air bubble was introduced into the tubing to separate the saline from a solution containing 1.3 nmol of NTR1-PNA oligomers in artificial cerebral-spinal fluid (ACSF). The volume of the solution containing the NTR1-PNA oligomers was about 1.0 μl. The bubble was used to confirm the movement of this solution through the polyethylene tubing.\nNTR1-PNA oligomers were injected into the PAG of each rat three times, on days -4, -2, and 0. Controls included rats receiving no injections, rats receiving injections of ACSF only, and rats receiving PNA oligomers having sequence specificity for an unrelated polypeptide, the mu-1 morphine receptor (MU1R). The sequence of MU1R-PNA is 5′-[…]-3′ (SEQ ID NO: 2).\nThe injection of NT in the PAG of rats produces a potent anti-nociceptive response as well as hypothermia. These responses are mediated by specific NT receptors and are not inhibited by naloxone. A very sensitive and reliable hot plate test was used to measure the anti-nociceptive effects of NT (Al-Rodhan N.R.F., Brain Res. 557:227-235 (1991)).\nNTR1-PNA, MU1R-PNA, and ACSF treated as well as untreated rats were analyzed using the hot plate test for NT. One day after the last treatment, each rat was analyzed as follows. Fifteen minutes prior to testing, a pre-drug latency measurement was made by placing the rat on a hot plate maintained at a temperature of 52±0.15° C. and recording the time elapsed before the rat licked either of its hindpaws. In addition, the temperature of the rat was taken using a thermister probe inserted 3 cm in the rectum to determine the pre-drug body temperature (BT). After making these measurement, an appropriate dose of NT (18 nmol) at a volume of about 0.5 ul was administered into the PAG as described above. Thirty minutes after administering NT, the rat was again placed on a hot plate maintained at a temperature of 52±0.15° C. and the latency between the time the rat was placed on the surface and the time it licked either of its hindpaws was measured. […] Hot plate tests were scored as the percent of maximum possible effect (% MPE) and calculated using the following equation: % MPE=[(post-drug latency−pre-drug latency)/(cut-off−pre-drug latency)]×100; where the cut-off is 30 seconds. […] This average for untreated control rats was used to set the baseline MPE value to 100. Immediately after the 30 second hot plate test, BT was taken to measure NT-induced hypothermia using a thermister probe inserted 3 cm in the rectum. […] All test situations were compared to these baseline values derived from NT responsive untreated controls. […]"}, "[2]": {"tested_on": "neurotensin receptor-1 (NTR1)", "test": "NT-induced hypothermia (rectal body temperature) in PNA-treated rats", "assay_type": "in vivo, rat", "details": "for body temperature change in response to NT: NT 18 nmol 24 hours later", "procedure": "NTR1-PNA, MU1R-PNA, and ACSF treated as well as untreated rats were analyzed using the hot plate test for NT. One day after the last treatment, each rat was analyzed as follows. Fifteen minutes prior to testing, a pre-drug latency measurement was made by placing the rat on a hot plate maintained at a temperature of 52±0.15° C. and recording the time elapsed before the rat licked either of its hindpaws. In addition, the temperature of the rat was taken using a thermister probe inserted 3 cm in the rectum to determine the pre-drug body temperature (BT). After making these measurement, an appropriate dose of NT (18 nmol) at a volume of about 0.5 ul was administered into the PAG as described above. Thirty minutes after administering NT, the rat was again placed on a hot plate maintained at a temperature of 52±0.15° C. and the latency between the time the rat was placed on the surface and the time it licked either of its hindpaws was measured. […] Hot plate tests were scored as the percent of maximum possible effect (% MPE) and calculated using the following equation: % MPE=[(post-drug latency−pre-drug latency)/(cut-off−pre-drug latency)]×100; where the cut-off is 30 seconds. […] This average for untreated control rats was used to set the baseline MPE value to 100. Immediately after the 30 second hot plate test, BT was taken to measure NT-induced hypothermia using a thermister probe inserted 3 cm in the rectum. […] All test situations were compared to these baseline values derived from NT responsive untreated controls.\n(§1) AS-NTR1-PNA, mismatch-AS-NTR1-PNA, and MU1R-PNA were injected intraperitoneally (10 mg/kg) independently, into separate groups of male Sprague-Dawley rats (Harlan, Prattville, Ala.). The sense-NTR1-PNA oligomer, however, was microinjected directly into the periaqueductal gray (PAG; 5 μg), the major area in the brain involved with perception of pain (nociception). […] Thirty minutes after receiving NT, animals were scored for anti-nociception (hot plate at 52° C.) and hypothermia (rectal probe). Again, anti-nociception scores were calculated as percent of maximum possible effect (% MPE) with the following equation: % MPE=[(post-drug latency time minus pre-drug latency time)/(cut-off time minus pre-drug latency time)]×100; where the cut-off time (i.e., the time when the animal was removed from the device) was 30 seconds for a hot plate test and 12 seconds for a tail flick test. Statistical analysis was done using the rank sum test."}, "mu-1 receptor (MU1R)": {"tested_on": "mu-1 receptor (MU1R)", "test": "Tail flick test of MOR-mediated anti-nociception in PNA-treated rats", "assay_type": "in vivo, rat", "procedure": "The injection of MOR into rats produces a potent anti-nociceptive response. This response is mediated by specific MOR receptors and is inhibited by naloxone. A very sensitive and reliable tail flick test was devised and used to measure the anti-nociceptive effects of MOR (D'Amour F. E. and Smith D. L, J. Pharm. Exp. Therap. 72:74-79 (1941)).\nMU1R-PNA, NTR1-PNA, and ACSF treated as well as untreated rats were analyzed using the MOR-specific tail flick test. One day after the last treatment, each rat was analyzed as follows. Thirty minutes prior to testing, a pre-drug latency measurement was made by placing the tail of the restrained rat in oil maintained at a temperature of 60° C. and recording the time elapsed before the rat flicked its tail. After making this measurement, an appropriate dose of MOR (5 mg/kg of body weight) at a volume of about 200 μl was injected i.p. Thirty minutes after administering MOR, the restrained rat's tail was again placed in the oil maintained at 60° C. and the latency between the time the tail was placed in the oil and the time the rat flicked its tail was measured. […] Tail flick tests were scored as the percent of MPE and calculated using the following equation: % MPE=[(post-drug latency−pre-drug latency)/(cut-off−pre-drug latency)]×100; where the cut-off is 12 seconds. […] This average for untreated control rats was used to set the baseline A MPE value to 100. All test situations were compared to this baseline response value derived from MOR responsive untreated controls. To test the significance, data were analyzed using the Student's t-test with p<0.05 being considered significant.\nas §1"}, "[3]": {"tested_on": "plasma membrane serotonin transporter", "test": "Hyperactivity (activity chamber) after tranylcypromine challenge", "assay_type": "in vivo, rat", "details": "5 mg/kg i.p., then 15 mg/kg TCP 48 hours later", "protocol": "To test the ability of SERT-PNA oligomers to engender a biological response, e.g., a reduction of plasma membrane serotonin transporter expression, SERT-PNA oligomers were administered to rats with and without tranylcypromine (TCP), a MAO inhibitor.\nA solution containing 5 mg/kg of SERT-PNA oligomers in saline was injected directly into the peritoneal cavity of male Sprague-Dawley rats (200-250 g). Each rat received a single injection on day zero and the volume injected was about 200 μl. Controls included rats receiving injections of saline only and injections of TCP only.\nTo monitor hyperactivity, an Opto-Varimex-Minor activity chamber (Columbus Instruments, Columbus, Ohio) was used. Briefly, this activity chamber records the number of times an animal disrupts an infrared beam while in a 42 cm by 42 cm chamber. Other signs of hyperactivity were noted by gross observation."}, "NTR1 mRNA": {"tested_on": "NTR1 mRNA", "test": "Quantitative RT-PCR of NTR1 mRNA relative to GAPDH", "assay_type": "in vivo", "details": "treated intracranially, 5 μg; at 8 hours", "procedure": "(§2) Messenger RNA (mRNA) levels for NTR1, MU1R, and GAPDH were measured in control and PNA-treated animals. Briefly, total RNA was isolated from approximately 20 mg of tissue using the S.N.A.P. total RNA Isolation Kit (Invitrogen, Carlsbad, Calif.). Quantitative RT-PCR was performed on treated and control animals using GAPDH as an internal standard and PCR fragments of the human NTR and of a GAPDH deletion mutant as exogenous standards. First strand cDNA was synthesized from approximately 500 ng of total RNA using the cDNA Cycle Kit (Invitrogen, Carlsbad, Calif.). PCR was performed on a GeneAmp PCR System 9600 (Perkin Elmer, Norwalk, Conn.) using end-labeled primer and TAq DNA Polymerase (Gibco-BRL, Gaithersburg, Md.). Products were separated on a 5% acrylamide gel containing 7 M urea, and detected using a Storm860 Phosphoimager (Molecular Dynamics, Sunnyvale, Calif.). Data were analyzed using ImageQuant Software (Molecular Dynamics, Sunnyvale Calif.). To control for any diurnal mRNA level fluctuations that may occur, the PNA injection time was controlled such that the tissue harvest time was identical in each animal group."}, "MU1R mRNA": {"tested_on": "MU1R mRNA", "test": "Quantitative RT-PCR of MU1R mRNA relative to GAPDH", "assay_type": "in vivo", "details": "treated intracranially, 5 μg", "procedure": "as §2"}, "[4]": {"details": "10 mg/kg intraperitoneally, NT 18 nmol into PAG 24 hours later"}, "[5]": {"details": "PNA injected into PAG on days -4, -2, 0, NT 18 nmol into PAG"}}}
{"substance": "MU1R-PNA: 14-mer antisense PNA oligomer to mu-1 receptor 5′ non-coding region, 5′-CAGCCTCTTCCTCT-3′ (SEQ ID NO: 2) (all peptide nucleic acid (PNA); further chemistry not fully specified)", "values": [{"measurement": "anti-nociception score (hot plate) after NT", "setting": "[1]; [4]", "value": 82, "unit": "% MPE"}, {"measurement": "MPE (hot plate) response to NT challenge as percent of baseline response", "setting": "[1]; [5]", "value": "indistinguishable from the baseline responses"}, {"measurement": "BT (hypothermia) response to NT challenge as percent of baseline response", "setting": "[2]; [5]", "value": "indistinguishable from the baseline responses"}, {"measurement": "time until which MOR-mediated anti-nociception remained significantly reduced", "setting": "mu-1 receptor (MU1R); PNA injected into PAG on days -4, -2, 0", "value": "day twelve"}, {"measurement": "responsiveness to MOR challenge (tail flick)", "setting": "mu-1 receptor (MU1R); one day after single i.p. injection of 3 mg/kg", "value": "unable to respond to MOR challenge"}]}
{"substance": "SERT-PNA: 12-mer antisense PNA oligomer to rat plasma membrane serotonin transporter, 5′-GCCAGATGTTGC-3′ (SEQ ID NO: 3) (all peptide nucleic acid (PNA); further chemistry not fully specified)", "values": [{"measurement": "hyperactivity after TCP", "setting": "[3]", "value": "extreme hyperactivity"}, {"measurement": "time to extreme hyperactivity after TCP treatment", "setting": "[3]", "value": "≤ 10", "unit": "min"}]}
{"substance": "mismatch-AS-NTR1-PNA: PNA oligomer like AS-NTR1-PNA with a mismatch at every third base pair, 5′-TATGGCACAGAC-3′ (SEQ ID NO:12) (all peptide nucleic acid (PNA); further chemistry not fully specified)", "values": [{"measurement": "anti-nociception score (hot plate) after NT", "setting": "[1]; [4]", "value": 60, "unit": "% MPE"}, {"measurement": "body temperature change in response to NT", "setting": "[2]; 10 mg/kg intraperitoneally", "value": "−1.3", "unit": "°C"}]}
{"substance": "sense-NTR1-PNA: sense PNA oligomer for NTR1, complementary to AS-NTR1-PNA, 5′-GTTTGAGCAATG-3′ (SEQ ID NO:13) (all peptide nucleic acid (PNA); sense control PNA, further chemistry not fully specified)", "values": [{"measurement": "anti-nociception score (hot plate) after NT", "setting": "[1]; [4]", "value": "5.4±5.4", "unit": "% MPE"}, {"measurement": "anti-nociception score (hot plate) after NT", "setting": "[1]; PNA microinjected into PAG (printed 5% g), NT 18 nmol 24 hours later", "value": 14, "unit": "% MPE"}, {"measurement": "body temperature change in response to NT", "setting": "[2]; 10 mg/kg intraperitoneally", "value": "−0.45±0.15", "unit": "°C"}, {"measurement": "body temperature change in response to NT", "setting": "[2]; PNA into PAG, 5 μg", "value": "−0.5", "unit": "°C"}, {"measurement": "reduction in the NTR1/GAPDH ratio of mRNA", "setting": "NTR1 mRNA", "value": 50, "unit": "%"}, {"measurement": "change in MU1R/GAPDH ratio of mRNA", "setting": "MU1R mRNA", "value": "no change"}]}
